Reference: patent US8785147B2, “L-threonine analysis method and L-threonine dehydrogenase” (Toyama Prefecture, priority 2010, dated 2014)

Assays:
[1] = system: TDH derived from Cupriavidus necator NBRC 102504 (SEQ ID NO: 1) (CnTDH); test: Substrate specificity of TDH, standard assay; type: biochemical; settings: for Activity of the present enzyme on the substrate (in words): substrate 10 mM
Protocol: L-threonine oxidation activity was determined by measuring coenzyme NAD^+ reduction at 30° C. and 340 nm. The reaction composition consisted of a total volume of 1 mL and contained L-threonine (final concentration 10 mM), NAD^+ (final concentration 2.5 mM), and glycine-KCl—KOH buffer (100 mM, pH 10.0). The measurement of activity began with the addition of the enzyme. One unit (U) of enzymatic activity was defined as the amount of enzyme producing 1 μmol of NADH per minute under standard conditions.
TDH was examined using substrates in the form of various L-amino acids, amino alcohols, and alcohols. […]

[2] = system: CsTDH: TDH from Clostridium sticklandii; settings: substrate specificity; L-threonine = 100; cited from earlier work
[3] = target: EcTDH: TDH from Escherichia coli K-12 (Escherichia coli, UniProt P07913); settings: substrate specificity; L-threonine = 100; cited from earlier work
[4] = system: GdTDH: TDH from chicken liver (Gallus domesticus); settings: substrate specificity; L-threonine = 100; cited from earlier work
[5] = system: CyTDH: TDH from Cytophaga sp. KUC-1; settings: substrate specificity; L-threonine = 100; cited from earlier work
[6] = target: PfTDH: TDH from Pyrococcus furiosus (Pyrococcus furiosus, UniProt Q8U259); settings: substrate specificity; L-threonine = 100; cited from earlier work
TkTDH = TkTDH (Thermococcus kodakarensis, UniProt Q5JI69); settings: substrate specificity; L-threonine = 100; cited from earlier work
[7] = system: StTDH: TDH from Streptomyces sp. 139; settings: substrate specificity; L-threonine = 100; cited from earlier work
[8] = system: AgTDH: TDH from Arthrobacter globiformis; settings: substrate specificity; L-threonine = 100; cited from earlier work
[9] = substrate concentration 10 mM, standard assay conditions, L-threonine = 100

PfTDH: TDH from Pyrococcus furiosus, sequence (Q8U259 whole entry): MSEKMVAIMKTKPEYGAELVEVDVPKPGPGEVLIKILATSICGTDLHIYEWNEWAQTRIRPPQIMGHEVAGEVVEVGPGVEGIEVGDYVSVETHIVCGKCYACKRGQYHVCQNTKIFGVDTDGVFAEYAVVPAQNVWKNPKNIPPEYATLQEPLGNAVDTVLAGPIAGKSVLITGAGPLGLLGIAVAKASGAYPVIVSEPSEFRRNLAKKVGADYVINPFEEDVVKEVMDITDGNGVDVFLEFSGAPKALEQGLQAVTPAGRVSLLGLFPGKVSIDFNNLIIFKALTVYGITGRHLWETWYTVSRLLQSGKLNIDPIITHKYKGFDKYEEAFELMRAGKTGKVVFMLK
EcTDH: TDH from Escherichia coli K-12, sequence (P07913 whole entry): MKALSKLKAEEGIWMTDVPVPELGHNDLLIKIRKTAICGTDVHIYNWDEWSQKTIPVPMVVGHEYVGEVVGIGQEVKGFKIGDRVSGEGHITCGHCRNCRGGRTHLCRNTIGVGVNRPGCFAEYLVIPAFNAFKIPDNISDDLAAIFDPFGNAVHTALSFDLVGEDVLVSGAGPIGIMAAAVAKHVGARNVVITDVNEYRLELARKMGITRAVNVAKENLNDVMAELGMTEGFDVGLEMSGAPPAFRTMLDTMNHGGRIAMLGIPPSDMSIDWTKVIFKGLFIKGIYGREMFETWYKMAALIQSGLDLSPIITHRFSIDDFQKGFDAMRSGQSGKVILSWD
TkTDH, sequence (Q5JI69 whole entry): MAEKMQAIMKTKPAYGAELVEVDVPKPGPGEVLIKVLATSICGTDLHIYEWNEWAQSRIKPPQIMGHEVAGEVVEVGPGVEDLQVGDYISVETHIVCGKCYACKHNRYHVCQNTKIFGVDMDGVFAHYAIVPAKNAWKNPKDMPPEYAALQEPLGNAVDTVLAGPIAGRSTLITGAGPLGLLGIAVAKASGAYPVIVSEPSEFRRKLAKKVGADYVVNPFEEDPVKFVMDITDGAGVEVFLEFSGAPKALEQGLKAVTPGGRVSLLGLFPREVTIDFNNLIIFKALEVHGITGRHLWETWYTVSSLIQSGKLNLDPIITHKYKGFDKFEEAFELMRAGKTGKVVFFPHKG

Compound	Relative activity (%) CnTDH [1, 9] [%]	Relative activity (%) CsTDH [2] [%]	Relative activity (%) EcTDH [3] [%]	Relative activity (%) GdTDH [4] [%]	Relative activity (%) CyTDH [5] [%]	Activity of the present enzyme on the substrate (in words) ([1]; standard assay conditions)	Relative activity (%) PfTDH [6] [%]	Relative activity (%) CnTDH ([1]; substrate 100 mM) [%]	Relative activity (%) TkTDH (TkTDH) [%]	Relative activity (%) StTDH [7] [%]	Relative activity (%) AgTDH [8] [%]
C[C@H](O)[C@H](N)C(=O)O (racemic) [DL-allothreonine]	0	0	95.0	0							
NC(C(=O)O)C(O)c1ccccc1 (racemic) [DL-threo-3-phenylserine]	0	0	3		0						
CCC(O)C(N)C(=O)O (racemic) [DL-α-amino-β-hydroxyvaleric acid]		20	71	0	31						
C[C@H](O)[C@@H](N)C(=O)O [D-threonine]	0	0	63.7	0	0	no activity was observed	5				
N[C@@H](CO)C(=O)O [L-serine]	0	0	4.0	0	0		15	0	13		
COC(=O)[C@@H](N)[C@@H](C)O [L-threonine methyl ester]	0	0	27								
C[C@@H](O)[C@H](N)C(=O)O [L-threonine]	100	100	100.0	100	100	exhibited the activity for only L-threonine	100		100	100	100
